{"source": "patent US20210078958A1", "about": "“QUINAZOLINE DERIVATIVE AND USE THEREOF” (MEDSHINE DISCOVERY INC., priority 2017, published 2021)", "key": {"[1]": {"tested_on": "subcutaneous xenograft tumor of human gastric cancer NCI-N87 cells", "format": "in vivo", "conditions": "for Tumor volume (mm3) (Day 21) / T/C (%) / TGI (%): 3 mg/kg (D0-7) + 1 mg/kg (D8-21); for Tumor volume (mm3) (Day 21): NCI-N87 xenograft, Mean ± SEM; for T/C (%) / TGI (%): day 21", "procedure": "Purpose of the assay: to evaluate the in vivo efficacy of compounds to be tested on subcutaneous xenograft tumor of human gastric cancer NCI-N87 cells in a BALB/c nude mouse model.\nAnimals of the assay: female BALB/c nude mice, 6-8 weeks old, weighted 18-22 grams; supplier: shanghai sippr bk laboratory animals Ltd.\n(§1) Human gastric cancer NCI-N87 cells were cultured in monolayer in vitro. The culture conditions were RPMI-1640 medium plus 10% fetal bovine serum, 100 U/mL penicillin, 100 μg/mL streptomycin and 2 mM glutamine, 37° C., 5% CO2. The passaging was performed by the conventional digestion with trypsin-EDTA twice a week. When the cell saturation was 80%-90%, the cells were collected, counted and inoculated.\n0.2 mL (10×10^6 cells) of NCI-N87 cells were inoculated subcutaneously on the right back of each nude mouse (PBS+Matrigel, 1:1). When the average tumor volume reached 145 mm^3, administration to each group was started.\nThe test compounds were formulated into a 0.3 mg/mL clear solution in the solvents of 10% NMP (N-methylpyrrolidone)+10% ethylene glycol stearate+80% water.\n(§2) The assay index is to investigate whether tumor growth is inhibited, delayed or cured. Tumor diameter was measured twice a week with a vernier caliper. The calculation formula of tumor volume is: V=0.5a×b^2, wherein a and b represent the long and short diameters of tumor, respectively.\n(§3) The antitumor efficacy of the compounds were evaluated by TGI (%) or relative tumor proliferation rate T/C (%). TGI (%) reflects the tumor growth inhibition rate. TGI (%) is calculated as follows: TGI (%)=[1−(average tumor volume at the end of administration for a certain treatment group−average tumor volume at the beginning of administration for this treatment group)/(average tumor volume at the end of treatment for a solvent control group−average tumor volume at the beginning of administration for this solvent control group)]×control group.\nRelative tumor proliferation rate T/C (%): the calculation formula is as follows: T/C %=TRTV/CRTV (TRTV: RTV for the treatment group; CRTV: RTV for the negative control group). Relative tumor volume (RTV) is calculated based on tumor measurement results. The calculation formula is RTV=Vt/V0, wherein V0 is the average tumor volume measured at the beginning of administration (i.e., d0) to each group, Vt is the average tumor volume at a certain measurement, and the data for TRTV and CRTV were taken on the same day.\nThe tumor weight was measured after the assay is over and the T/C weight percentage was calculated. T weight and C weight represent the tumor weight of the administration group and the vehicle control group, respectively.\n(§4) Statistical analysis included the mean and standard error (SEM) of tumor volume at each time point in each group. […] The comparison between two groups was analyzed by T-test, and the comparison among three or more groups was analyzed by one-way ANOVA. […] All data analysis was carried out with SPSS 17.0. p<0.05 was considered a significant difference."}, "[2]": {"tested_on": "subcutaneous xenograft tumor of human gastric cancer NCI-N87 cells", "experiment": "Assay Example 4: in vivo pharmacodynamics, NCI-N87 xenograft", "parameters": "species or system BALB/c nude mouse", "conditions": "for Tumor volume (mm3) (Day 28): NCI-N87 xenograft, Mean + SEM; for T/C (%) / TGI (%): day 28", "procedure": "Purpose of the assay: to evaluate the in vivo efficacy of test compounds disclosed herein on subcutaneous xenograft tumor of human gastric cancer NCI-N87 cells in a BALB/c nude mouse model.\nAnimals of the assay: female BALB/c nude mice, 6-8 weeks old, weighted 18-22 grams; supplier: Shanghai Ling Chang Biotechnology Co., Ltd.\nas §1, with “U/mL” for “μg/mL”, “by” for “by the”\n0.2 mL (10×10^6) of NCI-N87 cells (PBS+Matrigel, 1:1) were inoculated subcutaneously on the right back of each mouse. When the average tumor volume reached 158 mm^3, administration to each group was started.\nThe test compounds were formulated into a 0.04 mg/mL and 0.08 mg/mL clear solution in and the solvents of 10% NMP (N-methylpyrrolidone)+10% ethylene glycol stearate+80% water.\nas §2\nas §3, with “or” for “or relative”, “group)]×100%.” for “group)]×control group.”\nTumor proliferation rate T/C (%): the calculation formula is as follows: T/C (%)=average tumor volume at the end of administration for a certain treatment group/average tumor volume at the end of treatment for the solvent control group×100%.\nas §4, with “group (See Table 5-1 for specific data).” for “group.”"}}, "note": "Where two headings read alike, the source gives them in different places."}
{"smiles": "C=CC(=O)N1[C@@H]2CC[C@H]1C[C@H](Oc1cc3c(Nc4ccc(Cl)c(Cl)c4F)ncnc3cc1OC)C2", "note": "[Example 8]", "values": [{"measurement": "Tumor volume (mm3) (Day 21)", "setting": "[1]", "result": "30 ± 7", "unit": "mm3"}, {"measurement": "T/C (%)", "setting": "[1]", "result": 4.19, "unit": "%"}, {"measurement": "TGI (%)", "setting": "[1]", "result": 119.71, "unit": "%"}, {"measurement": "body weight of test animals (reference index for drug toxicity)", "setting": "[1]; mouse, in vivo", "result": "significantly better than that of the control compound Poziotinib"}]}
{"smiles": "C=CC(=O)N1[C@@H]2CC[C@H]1C[C@H](Nc1cc3c(Nc4ccc(Cl)c(Cl)c4F)ncnc3cc1OC)C2", "note": "[Example 38]", "values": [{"measurement": "Tumor volume (mm3) (Day 28)", "setting": "[2]; 0.4 mg/kg", "result": "47 ± 13", "unit": "mm3"}, {"measurement": "T/C (%)", "setting": "[2]; 0.4 mg/kg", "result": 7.51, "unit": "%"}, {"measurement": "TGI (%)", "setting": "[2]; 0.4 mg/kg", "result": 123.72, "unit": "%"}, {"measurement": "Tumor volume (mm3) (Day 28)", "setting": "[2]; 0.8 mg/kg", "result": "15 ± 3", "unit": "mm3"}, {"measurement": "T/C (%)", "setting": "[2]; 0.8 mg/kg", "result": 2.40, "unit": "%"}, {"measurement": "TGI (%)", "setting": "[2]; 0.8 mg/kg", "result": 130.56, "unit": "%"}]}
{"smiles": "C=CC(=O)N1CCC(Oc2cc3c(Nc4ccc(Cl)c(Cl)c4F)ncnc3cc2OC)CC1", "note": "[Poziotinib, reference compound]", "values": [{"measurement": "Tumor volume (mm3) (Day 21)", "setting": "[1]", "result": "54 ± 12", "unit": "mm3"}, {"measurement": "T/C (%)", "setting": "[1]", "result": 7.55, "unit": "%"}, {"measurement": "TGI (%)", "setting": "[1]", "result": 115.6, "unit": "%"}, {"measurement": "Tumor volume (mm3) (Day 28)", "setting": "[2]; 0.4 mg/kg", "result": "84 ± 9", "unit": "mm3"}, {"measurement": "T/C (%)", "setting": "[2]; 0.4 mg/kg", "result": 13.42, "unit": "%"}, {"measurement": "TGI (%)", "setting": "[2]; 0.4 mg/kg", "result": 115.81, "unit": "%"}, {"measurement": "Tumor volume (mm3) (Day 28)", "setting": "[2]; 0.8 mg/kg", "result": "28 ± 8", "unit": "mm3"}, {"measurement": "T/C (%)", "setting": "[2]; 0.8 mg/kg", "result": 4.47, "unit": "%"}, {"measurement": "TGI (%)", "setting": "[2]; 0.8 mg/kg", "result": 127.78, "unit": "%"}]}
